Measured values taken from US20240116922A1, “IMIDAZO[1,2-A]PYRIDINE DERIVATIVES AS IRAK4 INHIBITORS AND THEIR USE IN THE TREATMENT OF DISEASE” (BIOGEN MA INC., priority 2020, published 2024).
≈ marks a conversion by molar mass, not a printed value. Where a name gives a salt, the structure may show the parent alone.

Legend:
[1] = target: MDR1 (Homo sapiens (Human), UniProt P08183); assay: in vitro; conditions: MDCK-MDR1
[2] = Kinetic solubility assay (CLND), pH 6.8; type: physicochemical; conditions: potassium phosphate buffer pH 6.8, 2% DMSO, 24 hours at ambient temperature; for solubility kinetic at 24 h: aqueous buffer, kinetic from dmso stock
[3] = Kpuu assay (in vivo brain-to-plasma unbound partition); conditions: brain (unbound) versus plasma (unbound); intravenous infusion 4 to 24 h; unbound brain/plasma ratio; read-out: Brain Kpu, u
[4] = target: IRAK4 (Homo sapiens (Human), UniProt Q9NWZ3); assay: IRAK4 MSD biochemical assay (2-hour 1 mM ATP); conditions: 0.1 nM IRAK4, 1 mM ATP, 2 hour at room temperature
[5] = target: Human MDR1 transfected MDCK cells (Homo sapiens (Human), UniProt P08183); assay: MDR1-MDCK assay; conditions: 1 μM test concentration, 120 minutes incubation
Sequence of Human MDR1 transfected MDCK cells (P08183 whole entry): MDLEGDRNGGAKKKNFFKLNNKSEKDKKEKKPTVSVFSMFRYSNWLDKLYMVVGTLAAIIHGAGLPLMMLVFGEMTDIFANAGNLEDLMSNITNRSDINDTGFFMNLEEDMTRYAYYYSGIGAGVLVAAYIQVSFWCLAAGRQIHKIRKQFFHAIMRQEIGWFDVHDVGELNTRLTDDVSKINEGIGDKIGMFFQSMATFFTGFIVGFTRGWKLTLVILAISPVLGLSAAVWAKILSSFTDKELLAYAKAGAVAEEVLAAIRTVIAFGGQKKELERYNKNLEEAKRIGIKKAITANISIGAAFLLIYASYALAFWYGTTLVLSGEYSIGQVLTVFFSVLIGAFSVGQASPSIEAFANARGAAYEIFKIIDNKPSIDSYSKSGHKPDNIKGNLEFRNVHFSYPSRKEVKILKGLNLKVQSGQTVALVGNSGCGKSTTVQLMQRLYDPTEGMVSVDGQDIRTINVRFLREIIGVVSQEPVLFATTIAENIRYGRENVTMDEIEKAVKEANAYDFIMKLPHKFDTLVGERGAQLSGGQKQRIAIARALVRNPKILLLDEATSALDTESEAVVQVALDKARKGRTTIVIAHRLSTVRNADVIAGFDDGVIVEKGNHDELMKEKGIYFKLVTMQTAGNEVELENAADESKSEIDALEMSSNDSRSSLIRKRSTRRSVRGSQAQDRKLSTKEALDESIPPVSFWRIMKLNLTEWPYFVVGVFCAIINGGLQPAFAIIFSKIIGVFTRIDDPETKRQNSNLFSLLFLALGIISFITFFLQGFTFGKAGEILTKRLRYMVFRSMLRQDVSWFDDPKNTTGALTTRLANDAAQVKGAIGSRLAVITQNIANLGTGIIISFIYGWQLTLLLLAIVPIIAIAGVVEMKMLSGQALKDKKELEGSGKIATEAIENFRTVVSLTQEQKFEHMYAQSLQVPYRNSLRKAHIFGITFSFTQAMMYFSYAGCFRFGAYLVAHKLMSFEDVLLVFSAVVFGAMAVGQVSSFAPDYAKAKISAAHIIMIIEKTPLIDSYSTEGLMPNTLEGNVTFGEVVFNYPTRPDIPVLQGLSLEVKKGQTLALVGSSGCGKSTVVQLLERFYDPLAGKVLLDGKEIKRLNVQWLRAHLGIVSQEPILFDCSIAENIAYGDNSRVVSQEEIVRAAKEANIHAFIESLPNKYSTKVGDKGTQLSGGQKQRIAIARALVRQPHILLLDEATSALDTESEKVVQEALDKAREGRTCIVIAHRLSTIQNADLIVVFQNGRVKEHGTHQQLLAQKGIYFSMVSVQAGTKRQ

Sequence of IRAK4 (Q9NWZ3 whole entry): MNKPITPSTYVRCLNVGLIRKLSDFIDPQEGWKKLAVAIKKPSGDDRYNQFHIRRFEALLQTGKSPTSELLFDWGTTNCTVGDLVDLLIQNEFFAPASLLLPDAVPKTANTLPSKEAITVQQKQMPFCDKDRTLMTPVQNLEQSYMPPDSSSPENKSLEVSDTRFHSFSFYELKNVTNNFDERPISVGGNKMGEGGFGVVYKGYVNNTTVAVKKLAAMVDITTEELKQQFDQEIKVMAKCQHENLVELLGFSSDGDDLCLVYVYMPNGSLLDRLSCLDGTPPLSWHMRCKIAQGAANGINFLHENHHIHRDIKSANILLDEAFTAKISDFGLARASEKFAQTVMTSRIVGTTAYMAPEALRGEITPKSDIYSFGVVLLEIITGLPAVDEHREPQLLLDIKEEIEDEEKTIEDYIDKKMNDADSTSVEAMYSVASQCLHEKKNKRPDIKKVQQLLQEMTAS
Sequence of MDR1 (P08183 whole entry): as the sequence (P08183 whole entry) above

Structure (SMILES): CC12CC(c3cn4cc(C(=O)Nc5cccn(C6CC6)c5=O)c(OC5CCC5)cc4n3)(CO1)C2 [Example 27, 7-cyclobutoxy-N-(1-cyclopropyl-2-oxo-1,2-dihydropyridin-3-yl)-2-(1-methyl-2-oxabicyclo[2.1.1]hexan-4-yl)imidazo[1,2-a]pyridine-6-carboxamide]
- efflux ratio at 120 min, 1 μM [1]: 4
- solubility kinetic at 24 h [2]: 0.0657 mg/mL (≈ 143 µM)
- Kpuu (unbound brain-to-plasma partition coefficient) [3]: 0.42
- IC50 [4]: 0.6 nM

Structure (SMILES): O=C(Nc1cccn(C2CC2)c1=O)c1cn2cc(C34COC(C3)C4)nc2nc1OC1CCC1 [Example 36, 2-(2-oxabicyclo[2.1.1]hexan-4-yl)-7-cyclobutoxy-N-(1-cyclopropyl-2-oxo-1,2-dihydropyridin-3-yl)imidazo[1,2-a]pyrimidine-6-carboxamide]
- pH 6.8 Solubility (ug/mL) [2]: 20.8 ug/mL
- MDR1-MDCK Efflux Ratio [5]: 6.4
- IC50 [4]: 1.7 nM

Structure (SMILES): CC[C@H](C)Oc1nc2nc([C@@]34CC[C@@](C)(C3)OC4)cn2cc1C(=O)Nc1cccn(C2CC2)c1=O [Example 49, 7-((S)-sec-butoxy)-N-(1-cyclopropyl-2-oxo-1,2-dihydropyridin-3-yl)-2-((1S,4R)-1-methyl-2-oxabicyclo[2.2.1]heptan-4-yl)imidazo[1,2-a]pyrimidine-6-carboxamide]
- efflux ratio at 120 min, 1 μM [1]: 3.6
- solubility kinetic at 24 h [2]: 0.0561 mg/mL (≈ 117 µM)
- Kpuu (unbound brain-to-plasma partition coefficient) [3]: 0.66
- IC50 [4]: 0.4 nM

Structure (SMILES): CC(C)Oc1c(C(=O)Nc2cccn(C3CC3)c2=O)cn2cc(C34COC(C)(C3)C4)nc2c1F [Example 61, N-(1-cyclopropyl-2-oxo-1,2-dihydropyridin-3-yl)-8-fluoro-7-isopropoxy-2-(1-methyl-2-oxabicyclo[2.1.1]hexan-4-yl)imidazo[1,2-a]pyridine-6-carboxamide]
- efflux ratio at 120 min, 1 μM [1]: 2.8
- solubility kinetic at 24 h [2]: 0.0658 mg/mL (≈ 141 µM)
- Kpuu (unbound brain-to-plasma partition coefficient) [3]: 0.45
- IC50 [4]: 2 nM

Structure (SMILES): CC(C)Oc1nc2nc(C34CCC(C)(CC3)OC4)cn2cc1C(=O)Nc1cccn(C2CC2)c1=O [Example 77, N-(1-cyclopropyl-2-oxo-1,2-dihydropyridin-3-yl)-7-isopropoxy-2-(1-methyl-2-oxabicyclo[2.2.2]octan-4-yl)imidazo[1,2-a]pyrimidine-6-carboxamide]
- efflux ratio at 120 min, 1 μM [1]: 2.7
- solubility kinetic at 24 h [2]: 0.0072 mg/mL (≈ 15.1 µM)
- Kpuu (unbound brain-to-plasma partition coefficient) [3]: 0.61
- IC50 [4]: 0.3 nM

Structure (SMILES): CC(C)Oc1cc2nc(C34CC(C#N)(C3)C4)cn2cc1C(=O)Nc1cccn(C2CC2)c1=O [Example 80, 2-(3-cyanobicyclo[1.1.1]pentan-1-yl)-N-(1-cyclopropyl-2-oxo-1,2-dihydropyridin-3-yl)-7-isopropoxyimidazo[1,2-a]pyridine-6-carboxamide]
- efflux ratio at 120 min, 1 μM [1]: 4.9
- solubility kinetic at 24 h [2]: 0.0095 mg/mL (≈ 21.4 µM)
- Kpuu (unbound brain-to-plasma partition coefficient) [3]: 0.9
- IC50 [4]: 0.3 nM

Structure (SMILES): CC(C)Oc1nc2nc(C34COC(C)(C3)C4)cn2cc1C(=O)Nc1cccn(C2CC2(F)F)c1=O (stereo not shown) [Example 84, N-(1-(2,2-difluorocyclopropyl)-2-oxo-1,2-dihydropyridin-3-yl)-7-isopropoxy-2-(1-methyl-2-oxabicyclo[2.1.1]hexan-4-yl)imidazo[1,2-a]pyrimidine-6-carboxamide]
- efflux ratio at 120 min, 1 μM [1]: 7.4
- solubility kinetic at 24 h [2]: 0.0377 mg/mL (≈ 77.7 µM)
- Kpuu (unbound brain-to-plasma partition coefficient) [3]: 0.67
- IC50 [4]: 0.6 nM

Structure (SMILES): CC(C)Oc1cc2nc([C@]34CC[C@](C)(C3)OC4)cn2cc1C(=O)Nc1cccn([C@H]2C[C@H]2C)c1=O [Example 180, 7-isopropoxy-2-((1R,4S)-1-methyl-2-oxabicyclo[2.2.1]heptan-4-yl)-N-(1-((1S,2R)-2-methylcyclopropyl)-2-oxo-1,2-dihydropyridin-3-yl)imidazo[1,2-a]pyridine-6-carboxamide trifluoroacetate]
- efflux ratio at 120 min, 1 μM [1]: 2.6
- solubility kinetic at 24 h [2]: 0.023 mg/mL
- Kpuu (unbound brain-to-plasma partition coefficient) [3]: 1.58
- IC50 [4]: 0.2 nM
